Residual activity, inhibition and activity data for two compounds are collected here from ChEMBL document CHEMBL4507276 (2021).

Data set [1] concerns the target Serine/threonine-protein kinase VRK2 (Homo sapiens) (UniProt Q86Y07). The conditions noted are these: Compound concentration 1000.0 nM.
The target of data set [2] is MAP kinase-activated protein kinase 2 (Homo sapiens) (UniProt P49137). The conditions noted are these: Compound concentration 1000.0 nM.
In data set [3] the target is Tyrosine-protein kinase Lyn (Homo sapiens) (UniProt P07948). Nature of the data set: LYN B Invitrogen selectivity data (BI). The conditions noted are these: Compound concentration 3.0 uM.
In data set [4] the target is Serine/threonine-protein kinase 16 (Homo sapiens) (UniProt O75716). Nature of the data set: STK16 Invitrogen selectivity data (BI). The conditions noted are these: Compound concentration 3.0 uM.
The target of data set [5] is Tyrosine-protein kinase ABL1 (Homo sapiens) (UniProt P00519). Nature of the data set: ABL_CE Cerep selectivity data (BI). The conditions noted are these: Compound concentration 20.0 uM.
In data set [6] the target is Receptor tyrosine-protein kinase erbB-2 (Homo sapiens) (UniProt P04626). The experiment in a line: ERBB2 Invitrogen selectivity data (BI). The conditions noted are these: Compound concentration 3.0 uM.
Data set [7] deals with Tyrosine-protein kinase JAK1 (Homo sapiens) (UniProt P23458). Nature of the data set: JAK1 Invitrogen selectivity data (BI). The conditions noted are these: Compound concentration 3.0 uM.
The target in data set [8] is Proto-oncogene tyrosine-protein kinase Src (Homo sapiens) (UniProt P12931). Nature of the data set: SRC N1 Invitrogen selectivity data (BI). The conditions noted are these: Compound concentration 3.0 uM.
Data set [9] deals with T1, cAMP-dependent protein kinase catalytic subunit PRKX (Homo sapiens) (UniProt P51817).
T1 sequence (whole entry): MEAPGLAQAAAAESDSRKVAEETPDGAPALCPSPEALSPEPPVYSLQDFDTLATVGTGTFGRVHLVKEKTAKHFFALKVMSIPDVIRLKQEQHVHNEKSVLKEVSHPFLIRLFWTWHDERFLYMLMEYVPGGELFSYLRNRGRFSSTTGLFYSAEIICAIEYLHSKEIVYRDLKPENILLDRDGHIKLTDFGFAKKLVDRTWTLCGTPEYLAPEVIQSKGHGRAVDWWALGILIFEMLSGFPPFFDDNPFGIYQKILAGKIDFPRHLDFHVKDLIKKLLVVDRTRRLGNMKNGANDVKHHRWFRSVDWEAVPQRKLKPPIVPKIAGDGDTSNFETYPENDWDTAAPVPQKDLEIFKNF
Nature of the data set: PRKX Invitrogen selectivity data (BI). The conditions noted are these: Compound concentration 3.0 uM.

Data set [10] has as its target Serine/threonine-protein kinase PLK2 (Homo sapiens) (UniProt Q9NYY3). Nature of the data set: PLK2 Invitrogen selectivity data (BI). The conditions noted are these: Compound concentration 3.0 uM.
Data set [11] concerns the target Rho-associated protein kinase 1 (Homo sapiens) (UniProt Q13464). Nature of the data set: ROCK1 Invitrogen selectivity data (BI). The conditions noted are these: Compound concentration 3.0 uM.
Data set [12] concerns the target Prostaglandin F2-alpha receptor (Homo sapiens) (UniProt P43088). Nature of the data set: FPH_AGON Cerep selectivity data (BI). The conditions noted are these: filed as agonist, Compound concentration 20.0 uM.
Data set [13] has as its target T2, Activin receptor type-1 (Homo sapiens) (UniProt Q04771).
T2 sequence (whole entry): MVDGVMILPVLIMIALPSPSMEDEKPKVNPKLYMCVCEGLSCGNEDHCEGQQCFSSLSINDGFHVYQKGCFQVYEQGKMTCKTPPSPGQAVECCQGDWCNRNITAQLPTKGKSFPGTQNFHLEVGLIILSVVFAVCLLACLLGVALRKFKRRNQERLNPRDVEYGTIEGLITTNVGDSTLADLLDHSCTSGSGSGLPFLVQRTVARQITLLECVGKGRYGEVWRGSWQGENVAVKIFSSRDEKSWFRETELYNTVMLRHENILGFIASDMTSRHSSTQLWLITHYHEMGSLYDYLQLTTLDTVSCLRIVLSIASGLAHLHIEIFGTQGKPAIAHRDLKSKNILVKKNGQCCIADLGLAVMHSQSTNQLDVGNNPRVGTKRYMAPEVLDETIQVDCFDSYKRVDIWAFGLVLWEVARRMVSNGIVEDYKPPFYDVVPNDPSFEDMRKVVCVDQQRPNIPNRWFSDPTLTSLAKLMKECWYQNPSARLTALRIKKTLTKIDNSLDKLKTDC
Nature of the data set: ACVR1 Invitrogen selectivity data (BI). The conditions noted are these: Compound concentration 3.0 uM.

Data set [14] concerns the target Wee1-like protein kinase (Homo sapiens) (UniProt P30291). Nature of the data set: WEE1 Invitrogen selectivity data (BI). The conditions noted are these: Compound concentration 3.0 uM.
For data set [15], the target named is 5-hydroxytryptamine receptor 1D (Homo sapiens) (UniProt P28221). Nature of the data set: 5HT1D/H AG Cerep selectivity data (BI). The conditions noted are these: filed as agonist, Compound concentration 20.0 uM.
Data set [16] deals with T3, Serine/threonine-protein kinase D3 (Homo sapiens) (UniProt O94806).
T3 sequence (whole entry): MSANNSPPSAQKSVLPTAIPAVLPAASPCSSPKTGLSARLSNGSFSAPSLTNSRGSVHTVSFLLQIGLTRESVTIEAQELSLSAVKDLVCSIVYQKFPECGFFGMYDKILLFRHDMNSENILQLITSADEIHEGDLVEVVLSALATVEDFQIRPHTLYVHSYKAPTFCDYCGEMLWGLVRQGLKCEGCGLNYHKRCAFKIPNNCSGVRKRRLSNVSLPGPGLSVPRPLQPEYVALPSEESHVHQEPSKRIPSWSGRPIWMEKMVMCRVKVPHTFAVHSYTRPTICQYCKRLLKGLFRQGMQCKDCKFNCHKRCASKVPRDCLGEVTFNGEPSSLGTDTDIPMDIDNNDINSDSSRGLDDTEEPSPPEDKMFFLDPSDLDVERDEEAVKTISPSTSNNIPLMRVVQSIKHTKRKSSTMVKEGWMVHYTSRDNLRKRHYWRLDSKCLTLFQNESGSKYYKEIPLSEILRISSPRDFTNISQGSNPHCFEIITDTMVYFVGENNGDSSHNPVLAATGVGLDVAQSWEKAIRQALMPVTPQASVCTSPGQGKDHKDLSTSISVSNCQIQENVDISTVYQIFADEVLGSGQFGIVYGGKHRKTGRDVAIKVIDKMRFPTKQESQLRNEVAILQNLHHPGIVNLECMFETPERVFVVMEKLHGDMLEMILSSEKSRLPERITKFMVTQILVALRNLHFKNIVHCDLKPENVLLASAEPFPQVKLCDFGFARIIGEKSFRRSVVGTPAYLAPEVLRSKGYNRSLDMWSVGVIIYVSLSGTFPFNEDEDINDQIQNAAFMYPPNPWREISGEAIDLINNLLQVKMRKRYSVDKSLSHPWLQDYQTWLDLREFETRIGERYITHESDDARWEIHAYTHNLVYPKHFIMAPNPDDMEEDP
Nature of the data set: PRKCN Invitrogen selectivity data (BI). The conditions noted are these: Compound concentration 3.0 uM.

Data set [17] concerns the target Serine/threonine-protein kinase MRCK alpha (Homo sapiens) (UniProt Q5VT25). Nature of the data set: CDC42 BPA Invitrogen selectivity data (BI). The conditions noted are these: Compound concentration 3.0 uM.
The target of data set [18] is Dual specificity tyrosine-phosphorylation-regulated kinase 1B (Homo sapiens) (UniProt Q9Y463). The experiment in a line: DYRK1B Invitrogen selectivity data (BI). The conditions noted are these: Compound concentration 3.0 uM.
Data set [19] deals with 5-hydroxytryptamine receptor 1B (Homo sapiens) (UniProt P28222). The conditions noted are these: Compound concentration 10.0 uM.
Data set [20] deals with Homeodomain-interacting protein kinase 1 (Homo sapiens) (UniProt Q86Z02). Nature of the data set: HIPK1 Invitrogen selectivity data (BI). The conditions noted are these: Compound concentration 3.0 uM.
The target in data set [21] is L-type Ca2+ channel (diltiazem site), Cav1.2 alpha-1C (Rattus norvegicus, UniProt P22002). The experiment in a line: CA+/DILSI/RA Eurofins-Panlabs selectivity data (BI). The conditions noted are these: compound concentration 10 uM, read-out: % Ctrl.

One may read the inhibition as the relative decrease from the control value, in per cent.

Serine/threonine-protein kinase PLK2 (Homo sapiens), sequence (Q9NYY3 whole entry, looked up): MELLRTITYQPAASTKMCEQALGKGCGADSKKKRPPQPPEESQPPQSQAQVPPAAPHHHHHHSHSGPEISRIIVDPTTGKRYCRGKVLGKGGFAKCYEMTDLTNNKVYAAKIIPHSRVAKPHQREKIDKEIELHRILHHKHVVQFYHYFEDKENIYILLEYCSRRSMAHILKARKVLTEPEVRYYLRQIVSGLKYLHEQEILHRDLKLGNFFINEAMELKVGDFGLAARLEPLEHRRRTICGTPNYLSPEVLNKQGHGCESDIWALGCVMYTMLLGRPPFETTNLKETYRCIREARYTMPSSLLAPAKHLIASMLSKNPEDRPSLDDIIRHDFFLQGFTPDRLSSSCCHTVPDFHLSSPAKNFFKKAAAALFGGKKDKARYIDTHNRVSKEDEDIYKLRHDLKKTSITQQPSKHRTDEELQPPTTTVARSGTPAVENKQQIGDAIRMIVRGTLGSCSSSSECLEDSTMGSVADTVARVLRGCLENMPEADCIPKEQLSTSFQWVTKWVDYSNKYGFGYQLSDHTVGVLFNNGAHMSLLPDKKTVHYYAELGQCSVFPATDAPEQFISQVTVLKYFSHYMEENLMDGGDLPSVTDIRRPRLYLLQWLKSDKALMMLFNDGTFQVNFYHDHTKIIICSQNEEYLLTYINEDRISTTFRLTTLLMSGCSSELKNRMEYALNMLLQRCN
5-hydroxytryptamine receptor 1D (Homo sapiens), sequence (P28221 whole entry): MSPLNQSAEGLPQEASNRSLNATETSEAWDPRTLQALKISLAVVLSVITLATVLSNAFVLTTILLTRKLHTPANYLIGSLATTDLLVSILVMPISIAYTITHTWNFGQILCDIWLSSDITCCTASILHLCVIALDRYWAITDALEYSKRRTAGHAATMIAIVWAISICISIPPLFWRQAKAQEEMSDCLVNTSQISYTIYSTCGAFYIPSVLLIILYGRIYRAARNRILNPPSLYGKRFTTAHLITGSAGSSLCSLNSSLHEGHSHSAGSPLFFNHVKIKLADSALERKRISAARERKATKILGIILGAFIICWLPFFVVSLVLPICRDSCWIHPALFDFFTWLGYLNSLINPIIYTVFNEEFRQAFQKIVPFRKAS
Homeodomain-interacting protein kinase 1 (Homo sapiens), sequence (Q86Z02 whole entry, looked up): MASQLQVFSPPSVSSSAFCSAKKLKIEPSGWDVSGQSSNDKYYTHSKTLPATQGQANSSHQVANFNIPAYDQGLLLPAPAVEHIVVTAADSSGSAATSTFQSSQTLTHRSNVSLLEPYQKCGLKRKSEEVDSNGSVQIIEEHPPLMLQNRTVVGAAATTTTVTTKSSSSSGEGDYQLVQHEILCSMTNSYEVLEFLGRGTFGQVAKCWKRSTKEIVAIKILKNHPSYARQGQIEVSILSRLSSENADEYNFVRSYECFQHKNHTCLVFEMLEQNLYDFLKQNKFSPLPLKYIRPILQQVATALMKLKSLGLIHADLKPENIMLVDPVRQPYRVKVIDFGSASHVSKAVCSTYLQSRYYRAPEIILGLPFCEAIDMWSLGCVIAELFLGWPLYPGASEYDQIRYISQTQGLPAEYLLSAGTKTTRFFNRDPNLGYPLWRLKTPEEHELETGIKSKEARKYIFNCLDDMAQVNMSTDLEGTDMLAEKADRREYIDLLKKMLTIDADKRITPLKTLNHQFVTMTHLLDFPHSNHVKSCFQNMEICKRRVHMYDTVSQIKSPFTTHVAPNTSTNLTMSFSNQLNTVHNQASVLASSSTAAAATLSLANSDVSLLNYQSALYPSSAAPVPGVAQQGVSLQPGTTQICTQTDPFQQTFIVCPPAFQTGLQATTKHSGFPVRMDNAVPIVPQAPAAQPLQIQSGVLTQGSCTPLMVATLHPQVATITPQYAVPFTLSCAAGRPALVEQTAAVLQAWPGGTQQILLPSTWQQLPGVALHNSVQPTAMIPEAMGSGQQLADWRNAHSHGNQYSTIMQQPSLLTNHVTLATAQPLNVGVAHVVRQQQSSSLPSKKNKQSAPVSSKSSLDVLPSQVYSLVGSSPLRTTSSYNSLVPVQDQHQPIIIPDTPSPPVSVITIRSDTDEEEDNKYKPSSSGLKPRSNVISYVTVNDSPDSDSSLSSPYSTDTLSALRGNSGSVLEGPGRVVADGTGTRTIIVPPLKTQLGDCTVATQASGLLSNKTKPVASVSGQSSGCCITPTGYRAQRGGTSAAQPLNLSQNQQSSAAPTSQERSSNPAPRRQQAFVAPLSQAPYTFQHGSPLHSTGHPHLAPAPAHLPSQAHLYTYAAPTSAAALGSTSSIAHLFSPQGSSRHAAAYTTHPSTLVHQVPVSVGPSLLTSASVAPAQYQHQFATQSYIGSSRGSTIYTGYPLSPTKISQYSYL
L-type Ca2+ channel (diltiazem site), Cav1.2 alpha-1C, sequence (P22002 whole entry): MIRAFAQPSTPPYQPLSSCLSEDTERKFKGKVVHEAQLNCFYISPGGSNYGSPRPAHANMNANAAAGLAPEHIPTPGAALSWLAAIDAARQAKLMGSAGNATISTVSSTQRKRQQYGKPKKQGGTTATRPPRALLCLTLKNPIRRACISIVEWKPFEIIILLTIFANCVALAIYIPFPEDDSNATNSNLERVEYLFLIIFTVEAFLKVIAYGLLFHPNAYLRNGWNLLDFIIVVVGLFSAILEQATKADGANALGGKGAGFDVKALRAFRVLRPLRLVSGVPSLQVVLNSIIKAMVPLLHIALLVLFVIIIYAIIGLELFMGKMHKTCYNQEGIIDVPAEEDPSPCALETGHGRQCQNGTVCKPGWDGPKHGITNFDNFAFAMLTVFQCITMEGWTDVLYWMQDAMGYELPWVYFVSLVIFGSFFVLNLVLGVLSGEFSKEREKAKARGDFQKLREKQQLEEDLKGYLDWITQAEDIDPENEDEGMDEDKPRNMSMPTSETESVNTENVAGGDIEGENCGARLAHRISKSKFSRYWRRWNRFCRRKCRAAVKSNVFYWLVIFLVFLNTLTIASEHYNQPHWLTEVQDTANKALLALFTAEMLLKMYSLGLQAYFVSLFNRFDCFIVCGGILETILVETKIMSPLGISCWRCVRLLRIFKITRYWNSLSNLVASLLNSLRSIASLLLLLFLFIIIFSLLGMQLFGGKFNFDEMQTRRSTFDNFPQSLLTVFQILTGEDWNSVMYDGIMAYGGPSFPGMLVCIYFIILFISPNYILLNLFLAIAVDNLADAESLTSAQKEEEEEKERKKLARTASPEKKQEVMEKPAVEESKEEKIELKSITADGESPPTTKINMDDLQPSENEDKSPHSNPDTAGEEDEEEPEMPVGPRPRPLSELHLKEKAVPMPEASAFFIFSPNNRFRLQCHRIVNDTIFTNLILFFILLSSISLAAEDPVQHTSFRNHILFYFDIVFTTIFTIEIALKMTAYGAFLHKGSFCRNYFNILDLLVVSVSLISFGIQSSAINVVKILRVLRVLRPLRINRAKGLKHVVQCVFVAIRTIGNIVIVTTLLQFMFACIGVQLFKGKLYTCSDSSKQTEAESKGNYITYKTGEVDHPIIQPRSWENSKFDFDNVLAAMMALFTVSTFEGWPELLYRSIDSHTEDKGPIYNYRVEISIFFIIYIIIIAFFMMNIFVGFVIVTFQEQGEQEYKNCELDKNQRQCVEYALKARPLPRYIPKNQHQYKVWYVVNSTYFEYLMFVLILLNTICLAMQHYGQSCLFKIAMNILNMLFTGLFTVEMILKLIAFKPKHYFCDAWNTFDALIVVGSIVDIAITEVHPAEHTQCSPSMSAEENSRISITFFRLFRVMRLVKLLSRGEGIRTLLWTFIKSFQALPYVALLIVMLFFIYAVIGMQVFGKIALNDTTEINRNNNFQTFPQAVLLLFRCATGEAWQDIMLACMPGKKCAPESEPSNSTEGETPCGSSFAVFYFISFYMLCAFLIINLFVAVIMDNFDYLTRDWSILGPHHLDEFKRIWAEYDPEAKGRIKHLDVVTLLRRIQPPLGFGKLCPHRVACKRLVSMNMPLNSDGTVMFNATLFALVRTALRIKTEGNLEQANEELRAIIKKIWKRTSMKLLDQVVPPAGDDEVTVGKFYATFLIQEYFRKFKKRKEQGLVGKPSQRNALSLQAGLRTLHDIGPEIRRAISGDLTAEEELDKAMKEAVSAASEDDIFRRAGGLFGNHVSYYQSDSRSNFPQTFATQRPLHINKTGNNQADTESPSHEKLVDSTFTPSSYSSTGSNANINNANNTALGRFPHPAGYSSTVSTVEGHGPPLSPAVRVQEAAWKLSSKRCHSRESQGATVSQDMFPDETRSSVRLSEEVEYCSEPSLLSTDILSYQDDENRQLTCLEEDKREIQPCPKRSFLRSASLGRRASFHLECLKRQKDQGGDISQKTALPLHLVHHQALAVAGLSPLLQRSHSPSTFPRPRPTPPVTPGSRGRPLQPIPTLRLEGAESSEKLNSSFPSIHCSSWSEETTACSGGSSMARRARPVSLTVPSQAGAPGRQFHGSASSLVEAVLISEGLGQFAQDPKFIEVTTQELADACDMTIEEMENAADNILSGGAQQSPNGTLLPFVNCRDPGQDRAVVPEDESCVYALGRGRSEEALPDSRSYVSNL
MAP kinase-activated protein kinase 2 (Homo sapiens), sequence (P49137 whole entry, looked up): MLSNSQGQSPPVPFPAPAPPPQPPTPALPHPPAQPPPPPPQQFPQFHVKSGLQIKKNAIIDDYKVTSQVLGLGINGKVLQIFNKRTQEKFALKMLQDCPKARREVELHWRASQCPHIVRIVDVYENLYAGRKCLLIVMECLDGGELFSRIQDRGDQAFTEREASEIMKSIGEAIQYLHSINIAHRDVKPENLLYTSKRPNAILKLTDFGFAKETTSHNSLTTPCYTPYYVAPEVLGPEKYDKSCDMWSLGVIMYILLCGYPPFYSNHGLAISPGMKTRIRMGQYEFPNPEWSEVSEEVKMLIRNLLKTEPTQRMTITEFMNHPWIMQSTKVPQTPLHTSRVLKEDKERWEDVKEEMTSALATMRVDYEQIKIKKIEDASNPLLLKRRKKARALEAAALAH

In the case of `CN(C)C(=O)Cn1cc(-c2nc(C3(c4ccc(-c5cnc(N)nc5)cc4)CC3)no2)cn1` [BI 0153], the residual activity in data set [1] was 90%; in [2], 99%.
In the case of `CN(C)C(=O)Cn1cc(-c2nc([C@@](C)(c3ccc(-c4cnc(N)nc4)cc3)C3CC3)no2)cn1` [BI 665915], the residual activity in data set [3] was 89%; in data set [4], 98%; in [5] it was 33%; in data set [6] it was 108%; in data set [7], 100%; in data set [8], 85%. Further, the residual activity in data set [9] was 102%; in [10], 90%; in data set [11], 99.5%; in data set [12] it was 84%; in data set [13], 79%; in data set [14], 100%. The residual activity in data set [15] is 102%; in data set [16], 94.5%; in data set [17], 102%; in data set [18] it was 104%; in [20], 97%. Besides, the inhibition in data set [19] is -3.77%. For the same compound, the activity at 10 µM in data set [21] is on record as 73% (not active).
